Data as given in US8729089B2 (Gilead Sciences, Inc., priority 2006, dated 2014).

Key:
[1] = CC50 assay (CellTiter-Glo) in Huh-7 HCV replicon cells; format: cell-based, human; conditions: human, 3 days incubation, CellTiter-Glo readout
How it was run: (§1)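 Cytotoxicity (CC50) measured by CellTiter-Glo and antiviral activity (EC50) by luciferase signal from lysed cells, both by luminescence. Replicon-bearing Huh-7 cells, 6000 per well, incubated 3 days at 37 °C with threefold-diluted compound (0.5% DMSO for DMSO-dissolved compounds).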

[2] = tested on: HCV replicon in human hepatoma Huh-7 cell line; test: Anti-HCV replicon assay (EC50, luciferase); format: cell-based; conditions: Hepatitis C virus, Huh-7, 72 h
How it was run: as §1

| Structure (SMILES) | CC50 at 3 days [1] [µM] | EC50 [2] [nM] |
| --- | --- | --- |
| CCOc1nc(NC2(c3ccc(F)cc3)CC2)nc2ccc(-c3ccc(C(=O)NC(C)(C)CN4CCCC4)cc3)nc12 [Example 96, N-(1,1-Dimethyl-2-pyrrolidin-1-yl-ethyl)-4-{4-ethoxy-2-[1-(4-fluoro-phenyl)-cyclopropylamino]-pyrido[3,2-d]pyrimidin-6-yl}-benzamide] | < 5 | < 100 |
| C[C@H](N)C(=O)Nc1ccc(-c2ccc3nc(NCc4ccc(S(N)(=O)=O)cc4)nc(NCC(F)(F)F)c3n2)cc1F [Example 216, 2-Amino-N-{2-fluoro-4-[2-(4-sulfamoyl-benzylamino)-4-(2,2,2-trifluoro-ethylamino)-pyrido[3,2-d]pyrimidin-6-yl]-phenyl}-propionamide] | < 5 | < 100 |
| NS(=O)(=O)c1ccc(CNc2nc(NCC(F)(F)F)c3nc(-c4cc[nH]c(=O)c4)ccc3n2)cc1 [Example 288, 4-{[6-(2-Oxo-1,2-dihydro-pyridin-4-yl)-4-(2,2,2-trifluoro-ethylamino)-pyrido[3,2-d]pyrimidin-2-ylamino]-methyl}-benzenesulfonamide] | > 25 | < 100 |
| CCOc1nc(NCc2ccc(S(N)(=O)=O)cc2)nc2ccc(-c3ccc(F)c(NS(=O)(=O)C4CC4)c3)nc12 [Example 139, 4-{[4-Ethoxy-6-(4-(3-cyclopropanesulfonamido-4-fluoro)-phenyl)-pyrido[3,2-d]pyrimidin-2-ylamino]-methyl}-benzenesulfonamide] | < 5 | < 100 |
| CCOc1nc(NCc2ccc(F)cc2)nc2ccc(-c3ccc(CO)o3)nc12 [Example 97, {5-[4-Ethoxy-2-(4-fluoro-benzylamino)-pyrido[3,2-d]pyrimidin-6-yl]-furan-2-yl}-methanol] | 5 to 25 | < 100 |
| Nc1cnc(-c2ccc3nc(NCc4ccc(S(N)(=O)=O)cc4)nc(NCC(F)(F)F)c3n2)cn1 [Example 187, 4-{[6-(5-Amino-pyrazin-2-yl)-4-(2,2,2-trifluoro-ethylamino)-pyrido[3,2-d]pyrimidin-2-ylamino]-methyl}-benzenesulfonamide] | > 25 | < 100 |
| NC(=O)c1ccc(CNc2nc(NCC(F)(F)F)c3nc(-c4ccc(F)cc4)ccc3n2)cc1 [Example 261, 4-{[6-(4-Fluoro-phenyl)-4-(2,2,2-trifluoro-ethylamino)-pyrido[3,2-d]pyrimidin-2-ylamino]-methyl}-benzamide] | < 5 | < 100 |
| C[C@H](O)C(=O)Nc1ccc(-c2ccc3nc(NCc4ccc(S(N)(=O)=O)cc4)nc(NCC(F)(F)F)c3n2)cc1Cl [Example 208, N-{2-Chloro-4-[2-(4-sulfamoyl-benzylamino)-4-(2,2,2-trifluoro-ethylamino)-pyrido[3,2-d]pyrimidin-6-yl]-phenyl}-2-hydroxy-propionamide] | 5 to 25 | < 100 |
| CN1CC[C@H](C(=O)Nc2ccc(-c3ccc4nc(NCc5ccc(S(N)(=O)=O)cc5)nc(OC5CC5)c4n3)cc2)C1 [Example 176, 1-Methyl-pyrrolidine-3-carboxylic acid {4-[4-cyclopropoxy-2-(4-sulfamoyl-benzylamino)-pyrido[3,2-d]pyrimidin-6-yl]-phenyl}-amide] | > 25 | < 100 |
| Nc1cc(-c2ccc3nc(NCc4ccc(S(N)(=O)=O)cc4)nc(NCC(F)(F)F)c3n2)ccn1 [Example 169, 4-{[6-(2-Amino-pyridin-4-yl)-4-(2,2,2-trifluoro-ethylamino)-pyrido[3,2-d]pyrimidin-2-ylamino]-methyl}-benzenesulfonamide] | > 25 | < 100 |
| CCOc1nc(NCc2ccc(F)cc2F)nc2ccc(-c3ccc(C(=O)NC4CC4)cc3)nc12 [Example 107, N-Cyclopropyl-4-[2-(2,4-difluoro-benzylamino)-4-ethoxy-pyrido[3,2-d]pyrimidin-6-yl]-benzamide] | 5 to 25 | < 100 |
| NS(=O)(=O)c1ccc(CNc2nc(C3CC3)c3nc(-c4cccc(S(N)(=O)=O)c4)ccc3n2)cc1 [Example 291, 4-{[4-Cyclopropyl-6-(3-(aminosulfonyl)-phenyl)-pyrido[3,2-d]pyrimidin-2-ylamino]-methyl}-benzenesulfonamide] | < 5 | < 100 |
| CCOc1nc(NCc2ccc(Cl)c(F)c2)nc2ccc(-c3ccc(F)cc3)nc12 [Example 40, (4-Chloro-3-fluoro-benzyl)-[4-ethoxy-6-(4-fluoro-phenyl)-pyrido[3,2-d]pyrimidin-2-yl]-amine] | 5 to 25 | < 100 |
| CCOc1nc(NCc2ccc(S(N)(=O)=O)cc2)nc2ccc(-c3ccc(NC(=O)[C@H]4CCNC4)c(F)c3)nc12 [Example 120, (S)-4-{[4-Ethoxy-6-(3-fluoro-4-(pyrrolidine-3-carboxamido)-phenyl)-pyrido[3,2-d]pyrimidin-2-ylamino]-methyl}-benzenesulfonamide] | 5 to 25 | < 100 |
| CCOc1nc(NCCS(N)(=O)=O)nc2ccc(-c3ccc(F)cc3)nc12 [Example 265, 2-[4-Ethoxy-6-(4-fluoro-phenyl)-pyrido[3,2-d]pyrimidin-2-ylamino]-ethanesulfonic acid amide] | 5 to 25 | < 100 |
| NS(=O)(=O)c1ccc(CNc2nc(NCC(F)(F)F)c3nc(-n4cncn4)ccc3n2)cc1 [Example 285, 4-{[6-[1,2,4]Triazol-1-yl-4-(2,2,2-trifluoro-ethylamino)-pyrido[3,2-d]pyrimidin-2-ylamino]-methyl}-benzenesulfonamide] | > 25 | < 100 |
| CCOc1nc(NCc2ccc(F)cc2)nc2ccc(-c3ccc(NC(=O)C4CC4)nc3)nc12 [Example 79, Cyclopropanecarboxylic acid {5-[4-ethoxy-2-(4-fluoro-benzylamino)-pyrido[3,2-d]pyrimidin-6-yl]-pyridin-2-yl}-amide] | 5 to 25 | < 100 |
| NS(=O)(=O)c1ccc(CNc2nc(NCC(F)(F)F)c3nc(-c4csc(N5CCCC5)n4)ccc3n2)cc1 [Example 170, 4-{[6-(2-Pyrrolidin-1-yl-thiazol-4-yl)-4-(2,2,2-trifluoro-ethylamino)-pyrido[3,2-d]pyrimidin-2-ylamino]-methyl}-benzenesulfonamide] | < 5 | < 100 |
| CCOc1nc(NCc2ccc(F)cc2)nc2ccc(-c3ccc(C(=O)NC4CC4)cc3)nc12 [Example 65, N-Cyclopropyl-4-[4-ethoxy-2-(4-fluoro-benzylamino)-pyrido[3,2-d]pyrimidin-6-yl]-benzamide] | > 25 | < 100 |
| CCOc1nc(NCc2ccc(F)c(F)c2F)nc2ccc(-c3ccc(F)cc3)nc12 [Example 41, [4-Ethoxy-6-(4-fluoro-phenyl)-pyrido[3,2-d]pyrimidin-2-yl]-(2,3,4-trifluoro-benzyl)-amine] | 5 to 25 | < 100 |
| CN(CCS(C)(=O)=O)c1nc(NCc2ccc(F)cc2)nc2ccc(-c3ccc(NC(=O)C4(O)CC4)cc3)nc12 [Example 281, 1-Hydroxy-cyclopropanecarboxylic acid (4-{2-(4-fluoro-benzylamino)-4-[(2-methanesulfonyl-ethyl)-methyl-amino]-pyrido[3,2-d]pyrimidin-6-yl}-phenyl)-amide] | 5 to 25 | < 100 |
| CS(=O)(=O)Nc1cc(-c2ccc3nc(NCc4ccc(S(N)(=O)=O)cc4)nc(NCC(F)(F)F)c3n2)ccc1F [Example 230, 4-{[6-(4-Fluoro-3-methanesulfonylamino-phenyl)-4-(2,2,2-trifluoro-ethylamino)-pyrido[3,2-d]pyrimidin-2-ylamino]-methyl}-benzenesulfonamide] | 5 to 25 | < 100 |
| CCOc1nc(NCc2ccc(F)cc2)nc2ccc(-c3ccc(NC(=O)[C@@H]4C[C@@H](O)CN4)cc3)nc12 [Example 88, 4-Hydroxy-pyrrolidine-2-carboxylic acid {4-[4-ethoxy-2-(4-fluoro-benzylamino)-pyrido[3,2-d]pyrimidin-6-yl]-phenyl}-amide] | 5 to 25 | < 100 |
| NS(=O)(=O)c1ccc(CNc2nc(NCC(F)(F)F)c3nc(-c4ccc(C(=O)NC5CC5)cc4)ccc3n2)cc1 [Example 158, 4-{[4-(2,2,2-Trifluoroethyl)-amino-6-(4-(N-cyclopropylcarbamoyl)-phenyl)-pyrido[3,2-d]pyrimidin-2-ylamino]-methyl}-benzenesulfonamide] | 5 to 25 | < 100 |
| NS(=O)(=O)c1ccc(CNc2nc(C3CC3)c3nc(-c4ccc(F)c(S(N)(=O)=O)c4)ccc3n2)cc1 [Example 289, 5-[4-Cyclopropyl-2-(4-sulfamoyl-benzylamino)-pyrido[3,2-d]pyrimidin-6-yl]-2-fluoro-benzenesulfonamide] | 5 to 25 | < 100 |
| CCOc1nc(NCC(F)(F)F)nc2ccc(-c3ccc(F)cc3)nc12 [Example 21, [4-Ethoxy-6-(4-fluoro-phenyl)-pyrido[3,2-d]pyrimidin-2-yl]-(2,2,2-trifluoro-ethyl)-amine] | 5 to 25 | < 100 |
| CC(C)N1CCC(Nc2nc(NCc3ccc(F)cc3)nc3ccc(-c4ccc(F)cc4)nc23)CC1 [Example 29, N2-(4-Fluoro-benzyl)-6-(4-fluoro-phenyl)-N4-(1-isopropyl-piperidin-4-yl)-pyrido[3,2-d]pyrimidine-2,4-diamine] | < 5 | < 100 |
| CCOc1nc(NCc2ccc(S(N)(=O)=O)cc2)nc2ccc(-c3ccc(S(N)(=O)=O)cc3)nc12 [Example 134, 4-{[4-Ethoxy-6-(4-(aminosulfonyl)-phenyl)-pyrido[3,2-d]pyrimidin-2-ylamino]-methyl}-benzenesulfonamide] | 5 to 25 | < 100 |
| CCOc1nc(NCc2ccc(C(F)(F)F)c(F)c2)nc2ccc(-c3ccc(F)cc3)nc12 [Example 44, [4-Ethoxy-6-(4-fluoro-phenyl)-pyrido[3,2-d]pyrimidin-2-yl]-(3-fluoro-4-trifluoromethyl-benzyl)-amine] | 5 to 25 | < 100 |
